{"source": "paper PMC9090415", "about": "“Discovery of small molecule inhibitors of Plasmodium falciparum apicoplast DNA polymerase” (Journal of Enzyme Inhibition and Medicinal Chemistry, 2022)", "biological_target": "T1, bacteriophage T4 DNA polymerase (Enterobacteria phage T4, UniProt P04415)", "T1 construct": "made in house", "T1 sequence (P04415 1-898)": "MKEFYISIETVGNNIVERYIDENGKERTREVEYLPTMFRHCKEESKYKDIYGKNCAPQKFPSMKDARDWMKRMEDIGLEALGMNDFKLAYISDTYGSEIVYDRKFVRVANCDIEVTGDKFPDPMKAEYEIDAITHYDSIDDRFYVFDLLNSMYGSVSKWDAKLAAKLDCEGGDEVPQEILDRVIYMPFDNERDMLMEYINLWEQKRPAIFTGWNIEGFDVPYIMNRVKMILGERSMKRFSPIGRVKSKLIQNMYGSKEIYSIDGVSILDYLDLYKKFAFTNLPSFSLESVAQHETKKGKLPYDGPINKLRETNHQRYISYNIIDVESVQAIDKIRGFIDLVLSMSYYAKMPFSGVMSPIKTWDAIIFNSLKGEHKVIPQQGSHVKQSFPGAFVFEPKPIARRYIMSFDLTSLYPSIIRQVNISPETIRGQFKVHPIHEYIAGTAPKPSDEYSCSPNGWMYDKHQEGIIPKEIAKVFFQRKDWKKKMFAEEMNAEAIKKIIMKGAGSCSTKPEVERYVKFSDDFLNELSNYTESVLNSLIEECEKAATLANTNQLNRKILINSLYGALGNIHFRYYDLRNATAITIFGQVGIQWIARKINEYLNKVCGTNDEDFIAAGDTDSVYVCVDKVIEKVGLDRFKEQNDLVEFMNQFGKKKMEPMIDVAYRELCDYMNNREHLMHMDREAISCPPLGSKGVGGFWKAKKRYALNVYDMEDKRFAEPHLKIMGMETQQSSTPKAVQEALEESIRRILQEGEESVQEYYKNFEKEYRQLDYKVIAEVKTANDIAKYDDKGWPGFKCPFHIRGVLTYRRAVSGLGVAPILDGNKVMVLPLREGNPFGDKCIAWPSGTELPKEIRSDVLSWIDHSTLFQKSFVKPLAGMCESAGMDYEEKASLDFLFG", "experiment": "Counter-screen against bacteriophage T4 DNA polymerase", "type": "biochemical", "details": "for % inhibition T4 10' 2.5 / % inhibition T4 10' 5 / % inhibition T4 10' 10 / % inhibition T4 10' 20 / % inhibition T4 10' 40 / % inhibition T4 10' 80: read at 10'", "method_in_brief": "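Purified T4 DNA polymerase, a B-family enzyme, served as the counter-screen enzyme. Compounds were tested in dose-response format and IC50 values were derived.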", "data": [{"smiles": "Cc1ccc(C(=O)/C=C/C=C/C=C/N(C)C)o1", "note": "[Molecule 96, CN(/C=C/C=C/C=C/C(=O)c1ccc(o1)C)C]", "values": [{"measurement": "% inhibition T4 10'", "setting": "DRC-2, concentration 10", "result": 11, "unit": "%"}, {"measurement": "% inhibition T4 90'", "setting": "DRC-2, concentration 5", "result": 11, "unit": "%"}]}, {"smiles": "CC(C)CC(C(=O)O)N1C(=O)C2C3C=CC(C2C1=O)C1C(=O)N(C(CC(C)C)C(=O)O)C(=O)C31", "note": "(stereo not drawn) [KU0193449]", "values": [{"measurement": "% inhibition T4 10' 2.5", "setting": "DRC-1, concentration 2.5", "result": 3.278, "unit": "%"}, {"measurement": "% inhibition T4 10' 5", "setting": "DRC-1, concentration 5", "result": 4.491, "unit": "%"}, {"measurement": "% inhibition T4 10' 10", "setting": "DRC-1, concentration 10", "result": 8.777, "unit": "%"}, {"measurement": "% inhibition T4 10' 20", "setting": "DRC-1, concentration 20", "result": 7.866, "unit": "%"}, {"measurement": "% inhibition T4 10' 40", "setting": "DRC-1, concentration 40", "result": 21.6809, "unit": "%"}, {"measurement": "% inhibition T4 10' 80", "setting": "DRC-1, concentration 80", "result": 52.1619, "unit": "%"}, {"measurement": "% inhibition T4 70' 2.5", "setting": "DRC-1, read at 70', concentration 2.5", "result": 0.3673, "unit": "%"}, {"measurement": "% inhibition T4 70' 5", "setting": "DRC-1, read at 70', concentration 5", "result": 1.3204, "unit": "%"}, {"measurement": "% inhibition T4 70' 10", "setting": "DRC-1, read at 70', concentration 10", "result": 2.619, "unit": "%"}, {"measurement": "% inhibition T4 70' 20", "setting": "DRC-1, read at 70', concentration 20", "result": 3.878, "unit": "%"}, {"measurement": "% inhibition T4 70' 40", "setting": "DRC-1, read at 70', concentration 40", "result": 15.5336, "unit": "%"}, {"measurement": "% inhibition T4 70' 80", "setting": "DRC-1, read at 70', concentration 80", "result": 40.8979, "unit": "%"}, {"measurement": "% inhibition T4 130' 2.5", "setting": "DRC-1, read at 130', concentration 2.5", "result": -2.364, "unit": "%"}, {"measurement": "% inhibition T4 130' 5", "setting": "DRC-1, read at 130', concentration 5", "result": -1.909, "unit": "%"}, {"measurement": "% inhibition T4 130' 10", "setting": "DRC-1, read at 130', concentration 10", "result": -0.6043, "unit": "%"}, {"measurement": "% inhibition T4 130' 20", "setting": "DRC-1, read at 130', concentration 20", "result": 0.2689, "unit": "%"}, {"measurement": "% inhibition T4 130' 40", "setting": "DRC-1, read at 130', concentration 40", "result": 11.2312, "unit": "%"}, {"measurement": "% inhibition T4 130' 80", "setting": "DRC-1, read at 130', concentration 80", "result": 34.0378, "unit": "%"}, {"measurement": "% inhibition T4 10' 2.5", "setting": "DRC-2, concentration 2.5", "result": 4.54, "unit": "%"}, {"measurement": "% inhibition T4 10' 5", "setting": "DRC-2, concentration 5", "result": 4.24, "unit": "%"}, {"measurement": "% inhibition T4 10' 10", "setting": "DRC-2, concentration 10", "result": 10, "unit": "%"}, {"measurement": "% inhibition T4 10' 20", "setting": "DRC-2, concentration 20", "result": 15, "unit": "%"}, {"measurement": "% inhibition T4 10' 40", "setting": "DRC-2, concentration 40", "result": 28, "unit": "%"}, {"measurement": "% inhibition T4 10' 80", "setting": "DRC-2, concentration 80", "result": 55, "unit": "%"}, {"measurement": "% inhibition T4 40' 2.5", "setting": "DRC-2, read at 40', concentration 2.5", "result": 4.54, "unit": "%"}, {"measurement": "% inhibition T4 40' 5", "setting": "DRC-2, read at 40', concentration 5", "result": 4.24, "unit": "%"}, {"measurement": "% inhibition T4 40' 10", "setting": "DRC-2, read at 40', concentration 10", "result": 10, "unit": "%"}, {"measurement": "% inhibition T4 40' 20", "setting": "DRC-2, read at 40', concentration 20", "result": 15, "unit": "%"}, {"measurement": "% inhibition T4 40' 40", "setting": "DRC-2, read at 40', concentration 40", "result": 28, "unit": "%"}, {"measurement": "% inhibition T4 40' 80", "setting": "DRC-2, read at 40', concentration 80", "result": 55, "unit": "%"}, {"measurement": "% inhibition T4 90' 2.5", "setting": "DRC-2, read at 90', concentration 2.5", "result": 4, "unit": "%"}, {"measurement": "% inhibition T4 90' 5", "setting": "DRC-2, read at 90', concentration 5", "result": 3, "unit": "%"}, {"measurement": "% inhibition T4 90' 10", "setting": "DRC-2, read at 90', concentration 10", "result": 7, "unit": "%"}, {"measurement": "% inhibition T4 90' 20", "setting": "DRC-2, read at 90', concentration 20", "result": 11, "unit": "%"}, {"measurement": "% inhibition T4 90' 40", "setting": "DRC-2, read at 90', concentration 40", "result": 24, "unit": "%"}, {"measurement": "% inhibition T4 90' 80", "setting": "DRC-2, read at 90', concentration 80", "result": 52, "unit": "%"}, {"measurement": "% inhibition T4 180' 2.5", "setting": "DRC-2, read at 180', concentration 2.5", "result": -1, "unit": "%"}, {"measurement": "% inhibition T4 180' 5", "setting": "DRC-2, read at 180', concentration 5", "result": -1.88, "unit": "%"}, {"measurement": "% inhibition T4 180' 10", "setting": "DRC-2, read at 180', concentration 10", "result": 0.586, "unit": "%"}, {"measurement": "% inhibition T4 180' 20", "setting": "DRC-2, read at 180', concentration 20", "result": 2.64, "unit": "%"}, {"measurement": "% inhibition T4 180' 40", "setting": "DRC-2, read at 180', concentration 40", "result": 15, "unit": "%"}, {"measurement": "% inhibition T4 180' 80", "setting": "DRC-2, read at 180', concentration 80", "result": 45, "unit": "%"}]}, {"smiles": "COc1ccc(-c2n[nH]cc2Oc2ccc(Cl)cc2)c(O)c1", "note": "[KU0029837]", "values": [{"measurement": "% inhibition T4 10'", "setting": "DRC-2, concentration 2.5", "result": -22, "unit": "%"}, {"measurement": "% inhibition T4 10'", "setting": "DRC-2, concentration 5", "result": -28, "unit": "%"}, {"measurement": "% inhibition T4 10'", "setting": "DRC-2, concentration 10", "result": -25, "unit": "%"}, {"measurement": "% inhibition T4 10'", "setting": "DRC-2, concentration 20", "result": -25, "unit": "%"}, {"measurement": "% inhibition T4 10'", "setting": "DRC-2, concentration 40", "result": -19, "unit": "%"}, {"measurement": "% inhibition T4 10'", "setting": "DRC-2, concentration 80", "result": -34, "unit": "%"}, {"measurement": "% inhibition T4 40'", "setting": "DRC-2, concentration 2.5", "result": -22, "unit": "%"}, {"measurement": "% inhibition T4 40'", "setting": "DRC-2, concentration 5", "result": -28, "unit": "%"}, {"measurement": "% inhibition T4 40'", "setting": "DRC-2, concentration 10", "result": -25, "unit": "%"}, {"measurement": "% inhibition T4 40'", "setting": "DRC-2, concentration 20", "result": -25, "unit": "%"}, {"measurement": "% inhibition T4 40'", "setting": "DRC-2, concentration 40", "result": -19, "unit": "%"}, {"measurement": "% inhibition T4 40'", "setting": "DRC-2, concentration 80", "result": -34, "unit": "%"}, {"measurement": "% inhibition T4 90'", "setting": "DRC-2, concentration 2.5", "result": -22, "unit": "%"}, {"measurement": "% inhibition T4 90'", "setting": "DRC-2, concentration 10", "result": -26, "unit": "%"}, {"measurement": "% inhibition T4 90'", "setting": "DRC-2, concentration 20", "result": -25, "unit": "%"}, {"measurement": "% inhibition T4 90'", "setting": "DRC-2, concentration 80", "result": -34, "unit": "%"}, {"measurement": "% inhibition T4 180'", "setting": "DRC-2, concentration 2.5", "result": -26, "unit": "%"}, {"measurement": "% inhibition T4 180'", "setting": "DRC-2, concentration 10", "result": -30, "unit": "%"}, {"measurement": "% inhibition T4 180'", "setting": "DRC-2, concentration 20", "result": -30, "unit": "%"}]}]}
